Source: publication PMC9140920 (International Journal of Molecular Sciences, 2022)
“Also recorded” adds a separate entry of the source. Like-named read-outs stand apart in the source and are kept apart here.

Tests used:
TM4 mouse Sertoli cells = test: Cell growth and viability (MTT), dose-response of the drugs alone; assay type: cell-based
Description: Cells were maintained in standard conditions for 24 h before treatments. […] All azoles were dissolved in DMSO. In an effort to avoid a possible experimental artifact with vehicles, experiments were performed including control groups in which the effect of the drug vehicle alone was tested (vehicle control, vCTR). […] For experiments with N-acetylcysteine (NAC), 24 h after seeding cells were pre-treated for 1 h with the ROS inhibitor (1 mM) and then maintained in co-treatment with azoles for 48 h.
TM4 cells were seeded at a density of 1 × 10^4/cm^2, and cultures incubated at standard conditions in the presence or the absence of azoles to reach final concentrations ranging from 0.078 µM up to 320 µM in culture medium. Cell growth and viability were assessed at 24 and 48 h by Trypan-blue exclusion assay and MTT (3-(4,5-dimethylthiazol-2-yl)-2,5-diphenyl-2H-tetrazolium-bromide) colorimetric method (Sigma-Aldrich, St. Louis, MO, USA), quantifying the metabolic efficiency of living cells.
The Interaction Index (II) was calculated, as previously described, by modifying the Chou and Talalay equation [78]. Specifically, Chou and Talalay’s median-effect method estimates the IC50 and the sigmodicity coefficient m values using linear regression of the linearised dose-response curve.
For a two-drug assay, II is the summation of the ratios of the doses (Dn) of the drugs in combination, and the concentrations of the two drugs alone (IDx,n), to obtain a fraction x of cells affected by drug combinations (Fa). IDx,n is estimated by the following equation:(1) IDx,n=IC50(Fa/1−Fa)^1/mn

[1] = tested on: ROS production in TM4 cells; test: Intracellular ROS detection (DCFH-DA fluorescence); assay type: cell-based, mouse; conditions: 3 h of incubation, vs vCTR
Description: The intracellular ROS production was detected by using 2′,7′-dichlorofluorescein diacetate (DCFH-DA) (Molecular Probes, Eugene, OR, USA), as previously reported. In brief, after 30 min and 3 h of treatments, samples were incubated with 1 µM DCFH-DA at 37 °C for 30 min. Subsequently, cells were collected and twice washed in ice-cold PBS; samples were then analysed using flow cytometry to detect the presence of intracellular ROS at the wavelengths of 502 and 524 nm, for the excitation and the emission, respectively; the fluorescence intensity was detected with a Perkin Elmer LS-50B spectrofluorometer. Cells treated with 500 µM tert-butyl hydroperoxide (t-BHP) for 1.5 h were used as a positive control for ROS generation.

GSH in TM4 cells = test: GSH and GSSG intracellular content (colourimetric assay); assay type: cell-based, mouse; conditions: 3 h of incubation, vs vCTR
Description: GSH and GSSG intracellular contents were detected by using a colourimetric assay (ThermoFisher Scientific—Life Technologies Corp, Carlsband, CA, USA). The analyses were performed according to the manufacturer’s instructions after treatments with azoles at 3 h of incubation; in brief, cell lysates were prepared in ice-cold 5% 5-sulfo-salicylic acid dehydrate (Sigma-Aldrich, St. Louis, MO, USA), and subsequently resuspended in the supplied diluent before adding them into a 96-well microplate. After promptly adding substrate, the reaction with the free thiol group of GSH initiates, producing a highly coloured product. The relative absorbance was detected at 405 nm. Assays were performed at least in triplicate for the GSH and the GSSG content detection. To determine oxidised glutathione content, 2-vinylpyridine (2-VP) (Sigma-Aldrich, St. Louis, MO, USA) was added to block free GSH or other thiols contained in each sample; the specific concentration of the GSSG was determined by performing a 2-VP-treated samples standard curve.

ΔΨm in TM4 cells = test: Mitochondrial membrane potential (ΔΨm) by JC-1 flow cytometry; assay type: cell-based, mouse; conditions: 3 h of incubation, JC-1, vs vCTR
Description: Variations of the ΔΨm in samples exposed to azoles for 3 h were assessed using the lipophilic cation dye JC-1, as previously reported. Cells (1 × 10^6 per sample) were stained for 30 min at 37 °C in a humidified atmosphere, with 3 µM JC-1 (Molecular Probes, Eugene, OR, USA) and collected; after washing in PBS, cells were analysed using flow cytometry. To assure a positive control for the abatement of the ΔΨm, the cells were cultured in the presence of […] rotenone (Sigma-Aldrich, St. Louis, MO, USA) for 1 h at standard conditions, and then incubated with the potentiometric dye as described above. Experiments were performed in triplicate and analysed by an FACS Calibur instrument (BD Instruments Inc., San José, CA, USA). The fluorescent signals from JC-1 monomers or aggregates were detected through the FL-1 (525 ± 5 nm) and FL-2 bandpass filters (575 ± 5 nm), respectively; the forward and side scatter channels gated a minimum of 1 × 10^4 cells on the major population of normal-sized cells. ΔΨm data assessment was performed by the Cell Quest software (BD Instruments Inc., San José, CA, USA).

[2] = set-up: method as in PMID 42148393; conditions: cattle; cited from earlier work
TM4 cells = test: Annexin V-FITC / propidium iodide assay of apoptosis and necrosis; assay type: cell-based, mouse; conditions: 48 h, annexin V/PI, vs vCTR
Description: Cells were maintained in standard conditions for 24 h before treatments. […] All azoles were dissolved in DMSO. In an effort to avoid a possible experimental artifact with vehicles, experiments were performed including control groups in which the effect of the drug vehicle alone was tested (vehicle control, vCTR). In these experimental conditions, we excluded any negative effects of DMSO that is biocompatible with no biological effect per se. For experiments with N-acetylcysteine (NAC), 24 h after seeding cells were pre-treated for 1 h with the ROS inhibitor (1 mM) and then maintained in co-treatment with azoles for 48 h.
Treated and control cells (vCTR) (1 × 10^6) were collected; after washing in ice-cold PBS, samples were resuspended in 1 mL of binding buffer (10 mM HEPES, 140 mM NaCl, and 2.5 mM CaCl2, at pH 7.4) containing 10 µg/mL Annexin V-FITC and 1 µg/mL PI. After staining (1 h incubation at room temperature), cells were then washed and subsequently analysed using an FACS Calibur instrument (BD Instruments Inc., San José, CA, USA). Cells treated with 25 µM Etoposide (Eto) for 24 h were used as a positive control for apoptosis induction. Data from 10,000 events per sample were collected and analysed using an FACS Calibur instrument (BD Instruments Inc., San José, CA, USA ) equipped with cell cycle analysis software (Modfit LT for Mac V3.0) in order to calculate the percentages of apoptotic and necrotic cells.

CCCN(CCOc1c(Cl)cc(Cl)cc1Cl)C(=O)n1ccnc1 [PCZ, prochloraz]
IC20 (TM4 mouse Sertoli cells; Mus musculus, TM4, 48 h, read-out: IC20 ± SE): 18.5 ± 3.9 µM | IC50 (TM4 mouse Sertoli cells; Mus musculus, TM4, 48 h, read-out: IC50 ± SE, TM4 cells, 48 h of exposure, drug alone, 50% fraction of cells affected (Fa), non-linear fitting): ~73 µM | IC80 (TM4 mouse Sertoli cells; Mus musculus, TM4, 48 h, read-out: IC80 ± SE): 295 ± 62.3 µM | IC50 (TM4 mouse Sertoli cells; read-out: IC50 ± SE, TM4 cells, 48 h of exposure, drug alone, 50% fraction of cells affected (Fa), non-linear fitting): 73.8 ± 15.6 µM | increase in ROS production [1]: ~ 1.7 fold | intracellular GSH content (GSH in TM4 cells): only a slight decrease | mean intensity of red-orange fluorescence (MFI) of ΔΨm high population (ΔΨm in TM4 cells): increases in MFI | residues in edible tissues (moderate bioaccumulation) [2]: ≥ 0.01 mg/kg | apoptosis induction / cell death (TM4 cells): no significant differences; also recorded: not able to induce cell death
